From patent publication US12497515B2, “Fluorogenic pH-sensitive compounds and their methods of use” (LIFE TECHNOLOGIES CORPORATION, priority 2020, dated 2025)
One block for each compound: values may come before it.

Tests used:
[1] = system: Jurkat cells; assay: Apoptosis control experiments (CYQUANT Direct, PRESTOBLUE HS, CELLEVENT Caspase green); format: cell-based; conditions: 2 uM overnight
Method: In this study, Jurkat cells were grown in 0.1% DMSO vehicle control or 2 uM camptothecin overnight in normal cell culture conditions then harvested, counted, washed, labeled, and resuspended at matched total cell number at 2×10^6 cells per mL in complete culture medium and dispensed 100 uL (200,000 cells) per well (n=8 per measurement) before adding the indicated reagents for 1 hour. […] The apoptosis indicator CELLEVENT Caspase green (Thermo Fisher Scientific, Waltham, MA) was also added to the two samples matched in total cells per mL along with NUCBLUE Live (Thermo Fisher Scientific, Waltham, MA), and cells plated at 100,000 cells per well for HCA quantification on the […] CX5.

[2] = pKa of the free compound (pH profile of fluorescence intensity); format: physicochemical; conditions: series of pH buffers
Method: (§1) FIG. 6 provides the pH profile of fluorescence intensity of Compound C at room temperature. Fluorescence was measured using 636 nm ex, 654 nm em, with 5 nm bandpass. Solutions were diluted to 5 uM with a series of pH buffers in triplicate in a 96-well clear-bottom black walled plate. Samples were measured on a Tecan Infinite M100 plate reader via top-read. RFU=relative fluorescence units.
as §1, with “FIG. 7” for “FIG. 6”, “Compound E” for “Compound C”, “with” for “with a series of”
Fluorescence was measured using 636 nm excitation wavelength (ex), 654 nm emission wavelength (em), with 5 nm bandpass filter. Solutions were diluted to 5 uM with a series of pH buffers (see Table 3) in triplicate in a 96-well clear-bottom black walled plate. Samples were measured on a Tecan Infinite M100 plate reader via top-read.
Fluorescence was measured using 636 nm ex, 654 nm em, with 5 nm bandpass. Solutions were diluted to 5 uM with pH buffers in triplicate in a 96-well clear-bottom black walled plate. Samples were measured on a Tecan Infinite M100 plate reader via top-read.

[3] = pH response kinetics (ring opening, absorbance at 637 nm); format: physicochemical; conditions: for pH response kinetics: stock in phosphate buffer pH 7.4 mixed with phosphate buffer pH 3.13, room temperature
Method: The kinetics of the ring opening of Compound A, Compound C, and Compound H were studied by measuring absorbance changes at 637 nm (absorption maxima of the ring-opening states) with UV-Vis spectroscopy. Stock solutions of the three dyes were prepared in pH 7.4 phosphate buffer with concentration of 1.8 mM. […] Stock solutions (10 μL) containing the dyes (1.8 mM) in phosphate buffer (pH 7.4) were diluted 300 times with phosphate buffer (pH 3.13) to a final concentration of […] at pH 3.13. The absorption changes were recorded at room temperature at 637 nm.

[4] = system: RAW macrophages; assay: Phagocytosis of CD4 opsonized Jurkat cells labeled with compound; format: cell-based; conditions: incubated with RAW macrophages 1-3 hours, 10×
Method: In this study, Jurkat cells were grown as normal in complete medium then harvested, counted, washed, labeled, and resuspended per product description in complete culture medium before splitting into control and CD4 antibody treated samples. In brief, the cells were resuspended in PBS and labeled with either BSA control or CD4 antibody at 2 ug/mL for one hour at room temperature before washing 2× in PBS and adding to RAW macrophages.

[5] = system: Jurkat cells; assay: Toxicity and turn-on response of labeled cells (PRESTOBLUE Cell Health Assay, Cy5 imaging); format: cell-based
Method: In this study, healthy Jurkat cells were grown and harvested in normal cell culture conditions, washed, counted, labeled and resuspended per product description in complete culture medium, and incubated overnight before testing for cell health and number with the PRESTOBLUE Cell Health Assay (Thermo Fisher Scientific, Waltham, MA). Cells with Compound C were, in parallel determinations, resuspended in the external reference pH buffer indicated and imaged on an EVOS M7000 for signal in the Cy5 channel from labeled cells at extracellular pH 4.5 (FIG. 42A, in red) and 7.5 (FIG. 42A, Inset). FIG. 42B is a graph showing control (left side) and compound C (right side).

[6] = system: RAW macrophages; assay: Efferocytosis of labeled apoptotic Jurkat cells; format: cell-based; conditions: incubated with RAW macrophages 1-3 hours, 4× and 10×
Method: FIGS. 43-44 show the efferocytosis from apoptotic cells with Compound C. In this study, Jurkat cells were grown in 0.1% DMSO control or 2 uM camptothecin overnight in normal cell culture conditions then harvested, counted, washed, labeled and resuspended per product description in complete culture medium at matched density before adding to RAW macrophages for assays of efferocytosis, or the phagocytosis of apoptotic cells.

pKa [2]: 3.7
Compound: CC1(C)C=C(CS(=O)(=O)O)c2cc3c(c4c2N1CCC4)Oc1c(cc2c4c1CCCN4C(C)(C)CC2CS(=O)(=O)O)C31c2c(Cl)ccc(Cl)c2C(=O)N1NC(=O)CCOCCOCCOCCOCCC(=O)Oc1c(F)c(F)cc(F)c1F (centres unmarked) [Compound B]

pKa [2]: 4.67
Compound: CC1(C)C=C(CS(=O)(=O)O)c2cc3c(c4c2N1CCC4)Oc1c(cc2c4c1CCCN4C(C)(C)C=C2CS(=O)(=O)O)C31c2c(Cl)c(Cl)c(Cl)c(Cl)c2C(=O)N1OCCOCCOCCOCCC(=O)Oc1c(F)c(F)cc(F)c1F [Compound E]

pKa [2]: 5.5
Compound: CC1(C)C=C(CS(=O)(=O)O)c2cc3c(c4c2N1CCC4)Oc1c(cc2c4c1CCCN4C(C)(C)C=C2CS(=O)(=O)O)C31c2c(Cl)ccc(Cl)c2C(=O)N1OCC(=O)Oc1c(F)c(F)cc(F)c1F [Compound F]

pKa [2]: 5.2
Compound: CC1(C)C=C(CS(=O)(=O)O)c2cc3c(c4c2N1CCC4)Oc1c(cc2c4c1CCCN4C(C)(C)C=C2CS(=O)(=O)O)C31c2c(Cl)ccc(Cl)c2C(=O)N1CCOCCOCCOCCOCCC(=O)Oc1c(F)c(F)cc(F)c1F [Compound H]
absorbance as share of the expected maximum value (A=0.93) ([3]; after 6000 seconds (100 minutes) at pH 3.13): 5% | absorbance at 637 nm ([3]; after 6000 seconds (100 minutes) at pH 3.13, 6.6 μM): 0.05 | pH response kinetics [3]: slow

The next lines start with the compound.

Compound: CC[C@@]1(O)C(=O)OCc2c1cc1n(c2=O)Cc2cc3ccccc3nc2-1 [Camptothecin, camptothecin]
apoptosis, intracellular caspase activity (CELLEVENT Caspase green) [1]: substantial induction of apoptosis | live cell number (CYQUANT Direct) [1]: fewer live cells | overall vitality (PRESTOBLUE HS) [1]: decrease in overall vitality

Compound: CC1(C)C=C(CS(=O)(=O)O)c2cc3c(c4c2N1CCC4)Oc1c(cc2c4c1CCCN4C(C)(C)C=C2CS(=O)(=O)O)C31c2c(Cl)ccc(Cl)c2C(=O)N1CCN1CCN(C(=O)CCOCCOCCOCCOCCC(=O)ON2C(=O)CCC2=O)CC1 [Compound A]
pKa [2]: 5.2 | absorbance as share of the expected maximum value (A=0.93) ([3]; after 3600 seconds (60 minutes) at pH 3.13): 5% | absorbance at 637 nm ([3]; after 3600 seconds (60 minutes) at pH 3.13, 6.6 μM): 0.05 | pH response kinetics [3]: slow

Compound: CC1(C)C=C(CS(=O)(=O)O)c2cc3c(c4c2N1CCC4)Oc1c(cc2c4c1CCCN4C(C)(C)C=C2CS(=O)(=O)O)C31c2c(Cl)ccc(Cl)c2C(=O)N1OCCOCCOCCOCCC(=O)Oc1c(F)c(F)cc(F)c1F [Compound C]
phagocytosis signal, CD4 antibody treated vs control labeled Jurkat cells [4]: signal preferentially appearing from the CD4 treated samples | pKa [2]: 4.87 | absorption at 637 nm (A) ([3]; immediately after mixing pH 7.4 stock into pH 3.13 buffer, 6.6 μM, maximum, kept constant): 0.93 | pH response kinetics [3]: fast | toxicity to labeled cells vs sham labeled control ([5]; Jurkat cells, overnight, PRESTOBLUE): little toxicity | turn-on response of labeled cells ([5]; extracellular pH 4.5 vs 7.5, Cy5 channel): large fold turn-on response | efferocytosis signal, camptothecin treated vs control labeled Jurkat cells [6]: signal preferentially appearing from the camptothecin treated samples

Compound: CC1(C)C=C(CS(=O)(=O)O)c2cc3c(c4c2N1CCC4)Oc1c(cc2c4c1CCCN4C(C)(C)CC2CS(=O)(=O)O)C31c2c(Cl)c(Cl)c(Cl)c(Cl)c2C(=O)N1NC(=O)CCOCCOCCOCCOCCC(=O)Oc1c(F)c(F)cc(F)c1F (centres unmarked) [Compound D]
pKa [2]: 4.3

Compound: CC(C)(ON1C(=O)c2c(Cl)ccc(Cl)c2C12c1cc3c4c(c1Oc1c2cc2c5c1CCCN5C(C)(C)C=C2CS(=O)(=O)O)CCCN4C(C)(C)C=C3CS(=O)(=O)O)C(=O)Oc1c(F)c(F)cc(F)c1F [Compound G]
pKa [2]: 6.5
